Where two headings read alike, the source gives them in different places.
What was measured:
MM cell lines = assay: BLI-based cytotoxicity assay using LUC-transduced MM cell lines; design: species or system human; details: two MM cell lines, BMMSCs or HS-5
Description: Cell lines and culture: Luciferase (LUC)-transduced MM cell lines RPMI 8226, JJN3, UM9, MM1.s, U266, L363, and OPM-2 were cultured in RPMI 1640 (Life Technologies), supplemented with 10% heat-inactivated HyClone FetalClone I serum (GE Healthcare Life Sciences) and (penicillin, 10.000 U/mL; streptomycin, […]; InVitrogen,). HS-5 was cultured in DMEM (Life Technologies), supplemented with heat-inactivated FBS (Sigma) and antibiotics.

ABCG2/BCRP = biological target: T1, ABCG2/BCRP (Homo sapiens, UniProt Q9UNQ0); details: cited from earlier work
T1 sequence (Q9UNQ0 1-655): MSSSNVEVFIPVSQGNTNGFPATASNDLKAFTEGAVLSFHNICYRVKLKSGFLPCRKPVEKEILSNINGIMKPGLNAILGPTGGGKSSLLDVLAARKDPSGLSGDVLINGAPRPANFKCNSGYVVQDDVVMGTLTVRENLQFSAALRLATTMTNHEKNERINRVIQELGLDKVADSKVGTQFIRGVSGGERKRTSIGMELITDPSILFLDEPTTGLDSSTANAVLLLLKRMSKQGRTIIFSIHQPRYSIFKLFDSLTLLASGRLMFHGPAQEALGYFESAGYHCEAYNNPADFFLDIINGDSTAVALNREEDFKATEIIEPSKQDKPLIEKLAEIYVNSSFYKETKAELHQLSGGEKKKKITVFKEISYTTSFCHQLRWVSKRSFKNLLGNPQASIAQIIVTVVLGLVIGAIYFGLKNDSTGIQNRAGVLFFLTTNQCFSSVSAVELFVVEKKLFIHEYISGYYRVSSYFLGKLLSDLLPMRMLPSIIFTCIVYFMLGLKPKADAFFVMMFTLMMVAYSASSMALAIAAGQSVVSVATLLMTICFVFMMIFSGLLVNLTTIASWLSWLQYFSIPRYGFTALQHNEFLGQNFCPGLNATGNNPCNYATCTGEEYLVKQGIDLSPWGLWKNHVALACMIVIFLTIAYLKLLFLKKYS

Pgp/MDR1 = Pgp/MDR1 (Homo sapiens, UniProt P08183); details: cited from earlier work
Pgp/MDR1, sequence (P08183 whole entry): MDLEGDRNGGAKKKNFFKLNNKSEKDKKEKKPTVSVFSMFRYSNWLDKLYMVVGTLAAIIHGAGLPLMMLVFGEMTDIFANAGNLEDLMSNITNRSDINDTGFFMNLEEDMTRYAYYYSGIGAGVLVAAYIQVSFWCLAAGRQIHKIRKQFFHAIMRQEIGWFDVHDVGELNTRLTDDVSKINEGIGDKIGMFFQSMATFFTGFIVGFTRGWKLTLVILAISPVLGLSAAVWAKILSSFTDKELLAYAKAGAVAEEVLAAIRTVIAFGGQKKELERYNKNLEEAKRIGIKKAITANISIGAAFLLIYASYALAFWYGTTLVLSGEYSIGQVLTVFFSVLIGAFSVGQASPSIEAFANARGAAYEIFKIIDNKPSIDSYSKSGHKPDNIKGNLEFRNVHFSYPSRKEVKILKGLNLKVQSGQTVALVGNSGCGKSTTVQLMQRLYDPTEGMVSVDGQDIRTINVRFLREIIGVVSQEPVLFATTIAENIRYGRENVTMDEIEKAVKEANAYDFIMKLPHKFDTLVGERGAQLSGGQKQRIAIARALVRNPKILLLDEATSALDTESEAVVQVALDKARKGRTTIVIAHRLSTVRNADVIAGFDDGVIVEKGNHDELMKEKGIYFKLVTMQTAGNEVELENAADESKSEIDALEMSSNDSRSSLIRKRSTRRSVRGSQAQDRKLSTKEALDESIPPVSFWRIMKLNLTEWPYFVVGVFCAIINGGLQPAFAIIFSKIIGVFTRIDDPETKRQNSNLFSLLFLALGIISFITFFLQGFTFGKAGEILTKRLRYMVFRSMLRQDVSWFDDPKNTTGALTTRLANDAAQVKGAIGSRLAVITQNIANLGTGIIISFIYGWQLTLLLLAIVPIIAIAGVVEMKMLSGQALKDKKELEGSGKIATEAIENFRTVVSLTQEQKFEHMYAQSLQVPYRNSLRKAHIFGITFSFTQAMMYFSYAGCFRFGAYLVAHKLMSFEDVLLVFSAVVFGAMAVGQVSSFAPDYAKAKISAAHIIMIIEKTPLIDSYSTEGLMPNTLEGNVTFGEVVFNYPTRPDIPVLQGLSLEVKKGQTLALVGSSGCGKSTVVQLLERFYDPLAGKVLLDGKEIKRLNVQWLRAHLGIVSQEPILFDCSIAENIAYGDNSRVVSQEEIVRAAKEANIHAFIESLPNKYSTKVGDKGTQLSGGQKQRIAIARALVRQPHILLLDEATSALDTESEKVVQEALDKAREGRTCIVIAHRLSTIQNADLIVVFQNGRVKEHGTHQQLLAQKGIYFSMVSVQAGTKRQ

MM cells = details: previously demonstrated; cited from earlier work

| Structure (SMILES) | lysis of MM cell lines by the drug upon co-culture with stromal cells (MM cell lines) | substrate of efflux pump ABCG2/BCRP (ABCG2/BCRP) | substrate of efflux pump Pgp/MDR1 (Pgp/MDR1) | also measured |
| --- | --- | --- | --- | --- |
| CC(C)C[C@H](NC(=O)[C@H](Cc1ccccc1)NC(=O)c1cnccn1)B(O)O [bortezomib, reference compound] | significantly inhibited |  |  |  |
| CCc1c2c(nc3ccc(O)cc13)-c1cc3c(c(=O)n1C2)COC(=O)[C@]3(O)CC [SN-38] |  |  |  | substrate of efflux pump ABCG2/BCRP (ABCG2/BCRP; not told): substrates; substrate of efflux pump Pgp/MDR1 (Pgp/MDR1; not told): substrates |
| CC[C@@]1(O)C(=O)OCc2c1cc1n(c2=O)Cc2cc3c(CN(C)C)c(O)ccc3nc2-1 [topotecan] |  | substrates | substrates |  |
| COc1cccc2c1C(=O)c1c(O)c3c(c(O)c1C2=O)C[C@@](O)(C(=O)CO)C[C@@H]3O[C@H]1C[C@H](N)[C@H](O)[C@H](C)O1 [doxorubicin, reference compound] | significantly inhibited |  |  |  |
| COCCn1c2c([n+](Cc3cnccn3)c1C)C(=O)c1ccccc1C2=O [YM155] |  |  |  | modulation of BMMSC-mediated protection against CTLs and daratumumab-dependent ADCC (MM cells): effective modulation |
| CCc1c2c(nc3ccc(OC(=O)N4CCC(N5CCCCC5)CC4)cc13)-c1cc3c(c(=O)n1C2)COC(=O)[C@]3(O)CC [irinotecan] |  | substrates | substrates |  |

Source: US12268682B2, “Anticancer drug FL118 formulation for treatment of human cancer” (CANGET BIOTEKPHARMA, LLC, priority 2019, dated 2025)
